{"source": "patent US8357406B2", "about": "“Method for preparing raw material for functional foods from barley or wheat seeds” (priority 2009, dated 2013)", "assay_type_in_all_cases": "biochemical", "key": {"[1]": {"assay": "DPPH radical scavenging activity", "conditions": "0.4 mM DPPH, room temperature 10 min, absorbance 517 nm; average±SD of three measurements", "method": "For use in this assay, the samples prepared in the Examples and Comparative Examples were lyophilised and/or dried and pulverized into powders.\nThe samples were evaluated for DPPH radical scavenging activity according to the Brand-Williams method (Brand-Williams et al., Use of a free radical method to evaluate antioxidant activity. Food Sci. Technol. 28(1): 25-30, (1995)). The samples were added at various concentrations to 0.4 mM DPPH which was then incubated at room temperature for 10 min, followed by measuring absorbance at 517 nm.\n(§1) The data are average±standard deviation of three measurements.\nFor the positive control, the commercially available antioxidant BHA ([…], butylated hydroxy anisole) was employed."}, "[2]": {"assay": "Superoxide anion radical scavenging activity (NBT reduction method, xanthine/xanthine oxidase system)", "conditions": "25 mU/mL xanthine oxidase, 0.05 mM xanthine, 0.6 mM NBT, 25° C. 20 min, absorbance 560 nm; average±SD of three measurements", "method": "Superoxide anion radical scavenging activity was evaluated by the NBT (nitro blue tetrazolium) reduction method in which NBT is reduced by the superoxide anion radicals formed in a xanthine/xanthine oxydase system.\nAlong with 25 mU/mL of xanthine oxidase, the samples were added at various concentrations to 1.5 mL of a reaction solution containing 50 mM potassium phosphate buffer (pH 7.8), 0.05 mM xanthine, and 0.6 mM NBT, and incubated at 25° C. for 20 min before measuring absorbance at 560 nm.\nas §1\nFor a positive control, the commercially available antioxidant BHA ([…], butylated hydroxy anisole) was employed."}, "[3]": {"target": "xanthine oxidase (Homo sapiens, UniProt P47989)", "sequence (P47989 whole entry, species assumed)": "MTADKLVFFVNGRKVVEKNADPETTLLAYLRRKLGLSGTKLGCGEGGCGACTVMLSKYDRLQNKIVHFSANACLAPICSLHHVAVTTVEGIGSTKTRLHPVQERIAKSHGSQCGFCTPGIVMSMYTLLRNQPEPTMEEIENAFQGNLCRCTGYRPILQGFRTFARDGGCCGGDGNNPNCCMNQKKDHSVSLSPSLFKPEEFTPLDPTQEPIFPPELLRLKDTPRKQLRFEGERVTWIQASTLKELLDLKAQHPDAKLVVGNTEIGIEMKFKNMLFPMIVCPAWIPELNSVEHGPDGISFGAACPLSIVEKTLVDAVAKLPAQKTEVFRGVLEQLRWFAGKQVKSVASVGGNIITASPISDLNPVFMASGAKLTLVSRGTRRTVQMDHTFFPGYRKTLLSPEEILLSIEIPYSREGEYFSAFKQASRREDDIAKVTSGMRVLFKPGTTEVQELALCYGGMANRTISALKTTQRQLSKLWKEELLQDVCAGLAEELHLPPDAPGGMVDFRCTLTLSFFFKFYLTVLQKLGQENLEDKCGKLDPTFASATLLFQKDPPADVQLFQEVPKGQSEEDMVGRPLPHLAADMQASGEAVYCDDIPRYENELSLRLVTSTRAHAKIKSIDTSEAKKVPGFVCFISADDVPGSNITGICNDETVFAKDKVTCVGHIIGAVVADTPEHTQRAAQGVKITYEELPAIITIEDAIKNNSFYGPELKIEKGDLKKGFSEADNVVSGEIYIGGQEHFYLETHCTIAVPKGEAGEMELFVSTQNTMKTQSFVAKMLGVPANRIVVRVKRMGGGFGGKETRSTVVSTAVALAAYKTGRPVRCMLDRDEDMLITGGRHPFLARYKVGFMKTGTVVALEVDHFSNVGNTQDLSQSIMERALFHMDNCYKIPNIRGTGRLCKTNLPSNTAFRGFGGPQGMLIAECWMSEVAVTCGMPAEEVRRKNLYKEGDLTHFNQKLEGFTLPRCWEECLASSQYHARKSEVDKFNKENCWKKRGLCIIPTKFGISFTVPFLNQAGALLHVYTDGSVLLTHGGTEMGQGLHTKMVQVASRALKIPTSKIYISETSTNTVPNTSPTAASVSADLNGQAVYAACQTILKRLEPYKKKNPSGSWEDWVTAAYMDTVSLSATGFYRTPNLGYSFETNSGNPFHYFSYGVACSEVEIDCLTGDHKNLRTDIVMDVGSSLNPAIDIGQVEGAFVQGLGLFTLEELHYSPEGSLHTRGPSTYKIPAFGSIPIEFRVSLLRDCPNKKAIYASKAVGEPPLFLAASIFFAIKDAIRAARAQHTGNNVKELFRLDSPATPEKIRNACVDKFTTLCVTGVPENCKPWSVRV", "assay": "Inhibitory activity against xanthine oxidase (uric acid production, absorbance at 290 nm)", "conditions": "samples 1 mg/mL, 50 mU/ml xanthine oxidase; average±SD of three measurements", "method": "Inhibitory activity against xanthine oxidase was evaluated by the level of the uric acid produced in the xanthine/xanthine oxidase system, which can be quantitatively analyzed by absorbance at 290 nm.\n100 μL of 200 mM phosphate buffer (pH 7.5) containing 0.5 mM xanthine and 1 mM EDTA was mixed with 100 μL of the samples (1 mg/mL) to which 50 mU/ml xanthine oxidase was then added to induce the production of uric acid. The produced uric acid was quantitatively analyzed by absorbance at 290 nm.\nAllopurinol, a xanthine […] inhibitor used to treat gout, was used as a positive control."}}, "data": [{"smiles": "COc1ccc(O)c(C(C)(C)C)c1", "note": "[BHA, butylated hydroxy anisole]", "values": [{"measurement": "DPPH Radical Scavenging Activity IC50", "setting": "[1]", "result": "620 ± 110", "unit": "µg/mL"}, {"measurement": "Superoxide Anion Radical Scavenging Activity IC50", "setting": "[2]", "result": "1120 ± 240", "unit": "µg/mL"}]}, {"smiles": "Oc1ncnc2[nH]ncc12", "note": "[Allopurinol]", "values": [{"measurement": "Xanthine oxidase Inhibition (%)", "setting": "[3]", "result": "88.2 ± 2.1", "unit": "%"}]}]}
